PubChem BioAssay AID743072 (Broad Institute, 2013)
Calls of active or inactive are those of the source. How the calls were made is not given here.

System: M. tuberculosis BioA-TetON underexpression strain, growth inhibition
Assay: antitubercular activity, BioA-TetON-5 strain, plate reader, dry powder (AID 743072)
Conditions: for IC90: measured here: 90% growth inhibition

Row | SMILES | IC50 | IC90 [µM]
1 | CC(=O)c1ccc(N2CCN(C(=O)c3ccc4c(c3)OCCO4)CC2)cc1 | > 50 µM (inactive) | > 50
2 | COC(=O)c1c(C(=O)OC)c(-c2cccc(F)c2)n2c1CS(=O)C2 (stereo not given) | 1.7 µM | 34.9
3 | CC(C)(C)c1ccc(C(=O)N2CCN(c3ccc4c(c3)OCO4)CC2)cc1 | 10.7 µM | 29.5
4 | CC(=O)c1ccc(N2CCN(C(=O)c3cccnc3)CC2)cc1 | > 50 µM (inactive) | > 50
5 | O=C(Nc1cccnc1)c1cnn2c(C(F)F)cc(C3CC3)nc12 | 3.3 µM | > 50
6 | CCc1ccc(N2CCN(C(=O)c3ccc4c(c3)OCO4)CC2)cc1 | 6.3 µM | > 50
7 | CC(=O)c1ccc(N2CCN(C(=O)c3ccc(Cl)cc3)CC2)cc1 | 27.9 µM | > 50
8 | O=C(c1ccc2c(c1)OCO2)N1CCN(c2ccc(Cl)cc2)CC1 | 11.3 µM | 44.5
9 | CCN(CC)c1ccc2cc(C(=O)c3cccs3)c(=O)oc2c1 | 1.1 µM | 5.6
10 | O=C(Nc1ccc2snnc2c1)N1CCN(c2ccccc2)CC1 | 0.9 µM | 8.3
11 | O=C(c1ccc2c(c1)OCO2)N1CCN(Cc2ccccc2)CC1 | > 50 µM (inactive) | > 50
12 | CC(=O)c1ccc(N2CCN(C(=O)c3cccc(Cl)c3)CC2)cc1 | 2.2 µM | 16.5
13 | CC(=O)c1ccc(N2CCN(C(=O)c3ccc(F)cc3)CC2)cc1 | 44.7 µM | > 50
14 | O=C(Nc1ccc(Cl)c(-c2nc3ccccc3[nH]2)c1)c1cccnc1 | 1.9 µM | 14.5
15 | Cc1nc2ccc(NC(=O)N3CCN(c4ccccc4)CC3)cc2s1 | 1.3 µM | 3.8
16 | CC(=O)c1ccc(N2CCN(C(=O)c3cccc(F)c3)CC2)cc1 | > 50 µM (inactive) | > 50
17 | O=C(Nc1cccc(F)c1)N1CCN(c2ccccc2)CC1 | 4.6 µM | 32.9
18 | O=C(Nc1ccc(Cl)cc1)c1cc2nc(C3CC3)cc(C(F)(F)F)n2n1 | 50 µM | > 50
19 | CC(=O)c1ccc(N2CCN(C(=O)c3ccc(Br)cc3)CC2)c(F)c1 | 4.9 µM | > 50
20 | O=C(Nc1ccc2snnc2c1)N1CCOCC1 | > 50 µM (inactive) | > 50

Row | SMILES | IC50 | IC90 [µM]
21 | COc1cccc(NC(=O)CCC2CCN(C(=O)c3ccc(C(C)=O)s3)CC2)c1 | 4.4 µM | > 50
22 | Cc1cc(C)n2nc(C(=O)Nc3cccnc3)cc2n1 | 4.2 µM | > 50
23 | Cc1ccc(/C=C(\CCCC(=O)O)c2nc3ccccc3s2)cc1[N+](=O)[O-] | 6.1 µM | 46.2
24 | CC(=O)c1ccc(N2CCN(C(=O)c3ccc(C)cc3)CC2)cc1 | 31.4 µM | > 50
25 | CC(=O)c1ccc(N2CCN(C(=O)c3ccc4ncsc4c3)CC2)cc1 | 12.9 µM | > 50
26 | CC(=O)c1ccc(N2CCN(Cc3ccc4c(c3)OCO4)CC2)cc1 | 25.2 µM | > 50
27 | CC(=O)c1ccc(N2CCN(C(=O)c3ccccc3)CC2)cc1 | > 50 µM (inactive) | > 50
28 | Cc1ccc(/C=C(\CCC(=O)O)c2nc3ccccc3s2)cc1 | 1 µM | 2.8
29 | COc1cc(/C=C/C(=O)Nc2cccnc2)cc(OC)c1OC | 1.3 µM | 15.3
30 | COc1ccc(C(=O)N2CCN(c3ccc(C(C)=O)cc3)CC2)cc1 | 38.5 µM | > 50
31 | Cc1nc2cc(NC(=O)N3CCN(c4ccccc4)CC3)ccc2o1 | 36 µM | > 50
32 | O=C(c1ccc2c(c1)OCO2)N1CCN(c2ccc(F)cc2)CC1 | 10.6 µM | > 50
33 | Cc1ccc(/C=C(\CC(=O)O)c2nc3ccccc3s2)cc1[N+](=O)[O-] | 2.9 µM | 17.2
34 | Cc1ccc(/C=C(\CCC(=O)O)c2nc3ccccc3s2)cc1[N+](=O)[O-] | 0.3 µM | 0.7
35 | O=C(O)CC/C(=C\c1ccc([N+](=O)[O-])cc1)c1nc2ccccc2s1 | 1.3 µM | 7.9
36 | O=C(Nc1ccccc1)N1CCN(c2ccccc2)CC1 | 3.2 µM | 48.2
37 | COc1ccc(-c2cc(C(F)(F)F)n3nc(C(=O)Nc4cccnc4)cc3n2)cc1 | 0.3 µM | 0.9
38 | Cc1cccc(/C=C(\CCC(=O)O)c2nc3ccccc3s2)c1 | 1.8 µM | 9
39 | O=C(O)CC/C(=C\c1ccccc1[N+](=O)[O-])c1nc2ccccc2s1 | 50 µM | > 50
40 | CC(=O)c1ccc(N2CCN(C(=O)c3ccc4c(c3)OCO4)CC2)cc1 | 1.3 µM | 9.3

Row | SMILES | IC50 | IC90 [µM]
41 | O=C(Nc1cccnc1)c1cc2nc(-c3cccs3)cc(C(F)(F)F)n2n1 | > 50 µM (inactive) | > 50
42 | O=C(Nc1cccnc1)c1cnn2c(C(F)(F)F)cc(-c3ccccc3)nc12 | > 50 µM (inactive) | > 50
43 | CCc1ccc(C(=O)N2CCN(Cc3ccc4c(c3)OCO4)CC2)cc1 | 5.2 µM | > 50
44 | COc1ccc(NC(=O)N2CCN(c3ccccc3)CC2)cc1 | 48 µM | > 50
45 | COc1cccc(C(=O)N2CCN(c3ccc(C(C)=O)cc3)CC2)c1 | 41.5 µM | > 50
46 | Cc1ccc(NC(=O)N2CCN(c3ccccc3)CC2)cc1 | 10.6 µM | > 50
47 | O=C(Nc1ccncc1)c1cc2nc(C3CC3)cc(C(F)F)n2n1 | 50 µM | > 50
48 | Cc1ccccc1/C=C(\CCC(=O)O)c1nc2ccccc2s1 | 4.7 µM | 25.3
49 | CCOC(=O)N1CCN(C(=O)Nc2ccc3snnc3c2)CC1 | 3.8 µM | 29.6
50 | Cc1ccc(-c2cc(C(F)(F)F)n3nc(C(=O)Nc4cccnc4)cc3n2)cc1 | > 50 µM (inactive) | > 50
51 | O=C(c1ccc2c(c1)OCO2)N1CCN(c2ccccc2)CC1 | 20.9 µM | > 50
52 | COc1cccc(NC(=O)N2CCN(c3ccccc3)CC2)c1 | 36.4 µM | > 50
53 | O=C(Nc1ccc2[nH]ccc2c1)N1CCN(c2ccccc2)CC1 | 11.7 µM | > 50
54 | O=C(Nc1ccc2snnc2c1)N1CCCCC1 | 22 µM | > 50
55 | O=C(Nc1cccc(Cl)c1)N1CCN(c2ccccc2)CC1 | 4.9 µM | > 50
56 | COc1ccc(N2CCN(C(=O)c3ccc4c(c3)OCO4)CC2)cc1 | 17.6 µM | > 50
57 | O=C(Nc1cccnc1)N1CCN(c2ccccc2)CC1 | > 50 µM (inactive) | > 50
58 | Cc1cc(C)n2nc(C(=O)Nc3cccnc3)nc2n1 | 50 µM | > 50
59 | O=C(COc1ccc2ccc(=O)oc2c1)N1CCN(c2ccc(F)cc2)CC1 | 10.2 µM | 42.7
60 | O=C(Nc1ccc(F)cc1)N1CCN(c2ccccc2)CC1 | 5.1 µM | > 50
